Test results taken from patent US11331298B2, “Powder solid dispersions comprising quercetin, process for their preparation and formulations thereof” (INDENA S.P.A., priority 2017, dated 2022).

Columns and labels:
[1] = Single dose randomized, crossover pharmacokinetic study in healthy volunteers; assay type: in vivo, human; details: fasting, single oral dose, 500 mg film-coated tablets, mean
Experimental: A single dose randomized, crossover pharmacokinetic study in healthy volunteers under fasting conditions was performed using film-coated tablets containing 500 mg of (unformulated) quercetin dihydrate, 500 mg of quercetin (40%) powder solid dispersion (corresponding to 200 mg of quercetin dihydrate) and 250 mg of quercetin (40%) powder solid dispersion (corresponding to 100 mg of quercetin dihydrate).

[2] = Solubility studies in simulated gastro-intestinal fluids; assay type: physicochemical; details: excess analyte, magnetic stirring 2 hours, HPLC
Source text: Quercetin dihydrate, quercetin powder solid dispersion obtained in Example 1 and a mechanical (physical) mixture of the component of the said solid dispersion were subjected to comparative solubility experiments, in the presence of high excess of analyte, using the following simulated gastro-intestinal fluids: • fasted state simulated gastric fluid; • fasted state simulated intestinal fluid; • fed state simulated intestinal fluid.
Equivalent amounts of quercetin were used during the experiments. Quercetin dihydrate, quercetin powder solid dispersion of Example 1 and the mechanical (physical) mixture were kept under magnetic stirring for 2 hours. The supernatant was filtered and the quercetin concentration was calculated by HPLC analysis.

O=c1c(O)c(-c2ccc(O)c(O)c2)oc2cc(O)cc(O)c12 [Quercetin dihydrate, 2-(3,4-Dihydroxyphenyl)-3,5,7-trihydroxy-4H-chromen-4-one]
Cmax [1]: 10.93 ng/mL | AUC(0-inf) ([1]; human, in vivo): 90.1 ng·h/mL | Quercetin concentration (solubility) ([2]; Fasted state simulated gastric fluid (pH 1.6)): <LOD | Quercetin concentration (solubility) ([2]; Fasted state simulated intestinal fluid (pH 6.5)): 7.5 µg/mL | Quercetin concentration (solubility) ([2]; Fed state simulated intestinal fluid (pH 5.0)): 19.1 µg/mL
